Tests used:
Histamine H3 receptor [1] = biological target: Histamine H3 receptor (Homo sapiens, UniProt Q9Y5N1); experiment: Displacement of [3H]-(R)-alpha-methylhistamine from human H3 receptor expressed in HEK293T cells after 120 mins by scintillation counting; format: cell-based, HEK-293T
Histamine H3 receptor [2] = biological target: Histamine H3 receptor (Rattus norvegicus, UniProt Q9QYN8); experiment: Displacement of [3H]-(R)-alpha-methylhistamine from rat H3 receptor expressed in HEK293T cells after 120 mins by scintillation counting; format: cell-based, HEK-293T
hERG (KCNH2) = hERG (KCNH2) (Homo sapiens, UniProt Q12809); experiment: Inhibition of human ERG at 10 uM by IonWorks assay
[3] = biological target: Voltage-gated inwardly rectifying potassium channel KCNH2 (Homo sapiens, UniProt Q12809); experiment: Inhibition of human ERG by IonWorks assay
Histamine H1 receptor = Histamine H1 receptor (Homo sapiens, UniProt P35367); experiment: Binding affinity to H1 receptor
Histamine H2 receptor = Histamine H2 receptor (Homo sapiens, UniProt P25021); experiment: Binding affinity to H2 receptor
[4] = biological target: T1, 5-hydroxytryptamine receptor 1A (Homo sapiens, UniProt P08908); experiment: Binding affinity to 5-HT1A receptor
T1 sequence (P08908 whole entry): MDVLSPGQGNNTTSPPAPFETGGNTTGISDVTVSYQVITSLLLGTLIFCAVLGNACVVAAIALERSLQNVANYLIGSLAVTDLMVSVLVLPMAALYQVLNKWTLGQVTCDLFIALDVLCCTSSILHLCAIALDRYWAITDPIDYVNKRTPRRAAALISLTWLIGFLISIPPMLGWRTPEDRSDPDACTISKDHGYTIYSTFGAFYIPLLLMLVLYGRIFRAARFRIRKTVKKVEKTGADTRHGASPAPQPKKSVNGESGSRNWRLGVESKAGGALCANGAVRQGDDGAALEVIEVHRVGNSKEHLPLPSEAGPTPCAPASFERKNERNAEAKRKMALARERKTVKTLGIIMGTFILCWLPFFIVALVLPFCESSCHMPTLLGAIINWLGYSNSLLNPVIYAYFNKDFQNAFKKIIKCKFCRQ

[5] = biological target: 5-hydroxytryptamine receptor 2B (Homo sapiens, UniProt P41595); experiment: Binding affinity to 5-HT2B receptor
[6] = biological target: 5-hydroxytryptamine receptor 6 (Homo sapiens, UniProt P50406); experiment: Binding affinity to 5-HT6 receptor
D(2) dopamine receptor = D(2) dopamine receptor (Homo sapiens, UniProt P14416); experiment: Binding affinity to D2 receptor
[7] = biological target: T2, Alpha-2A adrenergic receptor (Homo sapiens, UniProt P08913); experiment: Binding affinity to alpha-2A receptor
T2 sequence (P08913 whole entry): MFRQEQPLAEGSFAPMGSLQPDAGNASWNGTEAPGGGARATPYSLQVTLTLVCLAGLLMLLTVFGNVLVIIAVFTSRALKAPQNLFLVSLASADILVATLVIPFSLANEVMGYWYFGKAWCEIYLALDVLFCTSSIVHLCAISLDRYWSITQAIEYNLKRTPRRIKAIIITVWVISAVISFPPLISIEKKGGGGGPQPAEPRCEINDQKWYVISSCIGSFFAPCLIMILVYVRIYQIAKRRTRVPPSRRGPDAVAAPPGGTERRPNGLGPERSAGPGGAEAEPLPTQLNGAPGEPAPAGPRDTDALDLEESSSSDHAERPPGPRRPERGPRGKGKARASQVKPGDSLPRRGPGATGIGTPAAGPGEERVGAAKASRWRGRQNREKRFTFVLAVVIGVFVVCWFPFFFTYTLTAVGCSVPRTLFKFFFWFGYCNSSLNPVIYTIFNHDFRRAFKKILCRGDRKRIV

[8] = biological target: Sodium-dependent serotonin transporter (Homo sapiens, UniProt P31645); experiment: Binding affinity to 5-HT transporter
[9] = biological target: Sodium-dependent dopamine transporter (Homo sapiens, UniProt Q01959); experiment: Binding affinity to DAT
Chain of Sodium-dependent dopamine transporter (Q01959 whole entry): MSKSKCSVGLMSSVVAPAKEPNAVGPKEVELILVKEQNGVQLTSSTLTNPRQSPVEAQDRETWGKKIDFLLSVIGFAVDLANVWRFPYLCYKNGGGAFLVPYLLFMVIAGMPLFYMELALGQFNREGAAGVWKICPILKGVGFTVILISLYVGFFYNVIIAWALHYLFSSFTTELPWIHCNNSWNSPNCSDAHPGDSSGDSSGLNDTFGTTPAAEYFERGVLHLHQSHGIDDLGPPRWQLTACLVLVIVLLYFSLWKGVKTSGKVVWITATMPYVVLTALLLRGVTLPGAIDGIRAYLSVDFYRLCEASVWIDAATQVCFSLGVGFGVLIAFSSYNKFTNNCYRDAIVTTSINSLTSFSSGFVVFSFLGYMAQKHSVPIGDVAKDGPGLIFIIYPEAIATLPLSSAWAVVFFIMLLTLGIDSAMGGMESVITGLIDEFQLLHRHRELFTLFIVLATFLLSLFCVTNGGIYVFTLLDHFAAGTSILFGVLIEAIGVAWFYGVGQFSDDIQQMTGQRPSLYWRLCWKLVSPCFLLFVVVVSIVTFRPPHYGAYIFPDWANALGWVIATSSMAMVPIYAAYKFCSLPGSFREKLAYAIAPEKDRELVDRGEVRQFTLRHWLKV

Chain of Histamine H1 receptor (P35367 whole entry): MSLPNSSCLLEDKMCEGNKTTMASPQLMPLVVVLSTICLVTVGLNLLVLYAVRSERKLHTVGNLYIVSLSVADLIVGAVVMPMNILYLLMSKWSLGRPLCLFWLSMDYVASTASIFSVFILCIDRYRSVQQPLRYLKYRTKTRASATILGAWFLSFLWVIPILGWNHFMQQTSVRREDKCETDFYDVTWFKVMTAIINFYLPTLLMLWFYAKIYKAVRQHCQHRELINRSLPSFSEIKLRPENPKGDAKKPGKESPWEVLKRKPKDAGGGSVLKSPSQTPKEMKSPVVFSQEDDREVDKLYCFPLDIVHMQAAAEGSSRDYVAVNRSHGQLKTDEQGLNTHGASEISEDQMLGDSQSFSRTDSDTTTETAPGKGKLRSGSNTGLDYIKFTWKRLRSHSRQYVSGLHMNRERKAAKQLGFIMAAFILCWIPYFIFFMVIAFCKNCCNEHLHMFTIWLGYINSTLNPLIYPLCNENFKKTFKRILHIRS
Chain of Sodium-dependent serotonin transporter (P31645 whole entry): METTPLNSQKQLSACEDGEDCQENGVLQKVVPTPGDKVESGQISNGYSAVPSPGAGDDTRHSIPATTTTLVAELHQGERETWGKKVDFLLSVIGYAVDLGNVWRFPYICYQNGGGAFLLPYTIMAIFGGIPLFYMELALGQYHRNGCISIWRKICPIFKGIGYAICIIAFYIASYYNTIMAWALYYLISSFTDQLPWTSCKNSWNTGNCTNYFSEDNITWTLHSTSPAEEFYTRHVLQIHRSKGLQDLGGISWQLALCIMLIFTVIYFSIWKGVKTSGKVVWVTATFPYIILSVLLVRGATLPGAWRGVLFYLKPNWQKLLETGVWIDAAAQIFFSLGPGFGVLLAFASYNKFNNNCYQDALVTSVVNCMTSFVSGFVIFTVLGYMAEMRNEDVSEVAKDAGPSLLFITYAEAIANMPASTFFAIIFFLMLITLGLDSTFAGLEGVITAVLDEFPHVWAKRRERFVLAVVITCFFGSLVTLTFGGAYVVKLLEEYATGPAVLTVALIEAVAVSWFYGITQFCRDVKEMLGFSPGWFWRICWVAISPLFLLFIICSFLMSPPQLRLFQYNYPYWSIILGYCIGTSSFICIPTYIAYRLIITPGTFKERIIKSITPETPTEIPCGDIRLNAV
Chain of D(2) dopamine receptor (P14416 whole entry): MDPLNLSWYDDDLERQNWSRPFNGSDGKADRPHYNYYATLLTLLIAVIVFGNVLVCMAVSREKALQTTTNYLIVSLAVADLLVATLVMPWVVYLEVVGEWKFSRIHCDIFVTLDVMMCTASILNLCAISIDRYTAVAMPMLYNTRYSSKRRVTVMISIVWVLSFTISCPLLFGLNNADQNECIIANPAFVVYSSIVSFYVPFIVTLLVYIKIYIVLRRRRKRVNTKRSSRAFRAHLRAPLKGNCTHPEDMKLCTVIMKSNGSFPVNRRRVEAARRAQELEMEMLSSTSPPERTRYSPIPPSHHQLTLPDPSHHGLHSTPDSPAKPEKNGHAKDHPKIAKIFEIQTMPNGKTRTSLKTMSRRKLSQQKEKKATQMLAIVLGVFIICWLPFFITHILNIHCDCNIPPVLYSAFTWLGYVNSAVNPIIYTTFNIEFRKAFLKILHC
Chain of 5-hydroxytryptamine receptor 2B (P41595 whole entry): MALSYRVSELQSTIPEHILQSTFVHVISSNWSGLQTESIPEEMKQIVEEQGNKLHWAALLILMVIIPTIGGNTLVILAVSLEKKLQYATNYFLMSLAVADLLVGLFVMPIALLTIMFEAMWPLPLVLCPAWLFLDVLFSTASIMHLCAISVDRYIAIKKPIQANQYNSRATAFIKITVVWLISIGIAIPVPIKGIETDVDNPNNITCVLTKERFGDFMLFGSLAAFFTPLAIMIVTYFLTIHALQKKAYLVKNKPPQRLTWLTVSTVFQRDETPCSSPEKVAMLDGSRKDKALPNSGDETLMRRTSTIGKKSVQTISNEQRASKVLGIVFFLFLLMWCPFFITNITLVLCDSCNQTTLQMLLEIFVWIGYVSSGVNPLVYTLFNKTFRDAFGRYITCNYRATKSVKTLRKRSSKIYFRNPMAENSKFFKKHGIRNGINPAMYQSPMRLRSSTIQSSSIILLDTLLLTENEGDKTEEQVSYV
Chain of Histamine H3 receptor (Rattus norvegicus, UniProt Q9QYN8) (Q9QYN8 whole entry): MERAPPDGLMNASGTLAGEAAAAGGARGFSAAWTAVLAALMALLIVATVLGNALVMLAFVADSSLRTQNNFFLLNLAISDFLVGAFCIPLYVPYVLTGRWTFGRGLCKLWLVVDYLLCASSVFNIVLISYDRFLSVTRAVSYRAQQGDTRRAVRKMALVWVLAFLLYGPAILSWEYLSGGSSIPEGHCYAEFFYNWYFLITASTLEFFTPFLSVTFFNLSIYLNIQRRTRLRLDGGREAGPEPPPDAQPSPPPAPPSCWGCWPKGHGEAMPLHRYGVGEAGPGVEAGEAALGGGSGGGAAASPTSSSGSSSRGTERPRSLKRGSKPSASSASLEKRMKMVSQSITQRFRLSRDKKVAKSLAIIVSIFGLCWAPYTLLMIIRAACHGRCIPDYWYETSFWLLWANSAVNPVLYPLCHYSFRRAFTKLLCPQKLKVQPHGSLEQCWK
Chain of Histamine H2 receptor (P25021 whole entry): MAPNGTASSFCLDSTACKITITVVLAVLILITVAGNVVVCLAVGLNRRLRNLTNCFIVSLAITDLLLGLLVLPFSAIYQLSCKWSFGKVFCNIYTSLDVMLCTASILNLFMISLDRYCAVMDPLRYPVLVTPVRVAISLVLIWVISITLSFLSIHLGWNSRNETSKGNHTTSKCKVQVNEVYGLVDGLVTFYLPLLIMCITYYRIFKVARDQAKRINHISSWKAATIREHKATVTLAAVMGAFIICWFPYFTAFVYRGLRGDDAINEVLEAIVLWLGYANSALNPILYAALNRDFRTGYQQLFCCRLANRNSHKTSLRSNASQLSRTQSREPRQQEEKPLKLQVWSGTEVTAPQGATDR
Chain of Histamine H3 receptor (Homo sapiens, UniProt Q9Y5N1) (Q9Y5N1 whole entry): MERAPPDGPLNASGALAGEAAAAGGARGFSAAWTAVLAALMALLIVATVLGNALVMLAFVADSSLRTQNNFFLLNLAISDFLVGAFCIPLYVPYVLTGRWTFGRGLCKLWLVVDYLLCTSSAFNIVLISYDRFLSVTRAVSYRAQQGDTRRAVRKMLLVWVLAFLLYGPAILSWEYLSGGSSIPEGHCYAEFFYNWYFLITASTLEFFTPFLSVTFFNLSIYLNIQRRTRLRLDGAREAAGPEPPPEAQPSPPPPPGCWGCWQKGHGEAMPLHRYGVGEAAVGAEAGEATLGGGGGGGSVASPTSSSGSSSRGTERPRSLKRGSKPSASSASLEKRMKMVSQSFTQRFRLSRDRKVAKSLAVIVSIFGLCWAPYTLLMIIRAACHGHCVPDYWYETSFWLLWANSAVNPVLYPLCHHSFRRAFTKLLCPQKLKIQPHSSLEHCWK
Chain of 5-hydroxytryptamine receptor 6 (P50406 whole entry): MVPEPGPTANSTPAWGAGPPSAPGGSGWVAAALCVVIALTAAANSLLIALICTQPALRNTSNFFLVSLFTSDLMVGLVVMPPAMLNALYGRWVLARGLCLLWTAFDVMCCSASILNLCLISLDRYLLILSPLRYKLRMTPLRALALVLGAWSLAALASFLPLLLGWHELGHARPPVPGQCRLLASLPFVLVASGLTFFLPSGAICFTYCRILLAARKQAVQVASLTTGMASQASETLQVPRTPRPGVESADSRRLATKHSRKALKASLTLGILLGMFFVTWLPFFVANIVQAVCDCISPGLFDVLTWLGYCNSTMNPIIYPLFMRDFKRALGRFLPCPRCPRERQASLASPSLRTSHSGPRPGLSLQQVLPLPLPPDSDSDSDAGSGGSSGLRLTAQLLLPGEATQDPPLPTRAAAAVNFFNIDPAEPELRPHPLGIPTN

Row | SMILES | Ki (Histamine H3 receptor [1]) | Ki (Histamine H3 receptor [2]) | further results
1 | N#Cc1cccc(-c2ccc3c(c2)CCN(CCN2CCCC2)C3=O)c1 | 0.0034 µM | 0.073 µM | –
2 | CNC(=O)c1ccc(-c2ccc3c(c2)CCN(CCN2CCCC2)C3=O)cc1 | 0.0013 µM | – | –
3 | O=C1c2ccc(-c3cccc(F)c3)cc2CCN1CCN1CCCC1 | 0.0116 µM | 0.164 µM | –
4 | C[C@@H]1CCCN1CCN1Cc2cc(-c3ccc(C#N)cc3)ccc2C1=O | 0.0238 µM | – | inhibition at 10 µM (hERG (KCNH2)): 98%
5 | O=C1c2ccc(-c3cccc(OC(F)(F)F)c3)cc2CCN1CCN1CCCC1 | 0.0284 µM | 0.276 µM | –
6 | CC(C)NC(=O)c1ccc(-c2ccc3c(c2)CCN(CCN2CCCC2)C3=O)cc1 | 0.0019 µM | – | –
7 | C[C@@H]1CCCN1CCN1CCc2c(cccc2-c2ccc(C#N)cc2)C1=O | 0.0217 µM | – | inhibition at 10 µM (hERG (KCNH2)): 96%
8 | O=C1c2ccc(-c3ccc(F)cc3F)cc2CCN1CCN1CCCC1 | 0.0081 µM | 0.153 µM | –
9 | C[C@@H]1CCCN1CCN1CCc2cc(Oc3ccc(C#N)nc3)ccc2C1=O | 0.0003 µM | – | inhibition at 10 µM (hERG (KCNH2)): 99%
10 | O=C1c2ccc(-c3cccc(C(F)(F)F)c3)cc2CCN1CCN1CCCC1 | 0.0064 µM | 0.182 µM | –
11 | C[C@@H]1CCCN1CCN1CCc2cc(Oc3ccc(C#N)cn3)ccc2C1=O | 0.0012 µM | – | inhibition at 10 µM (hERG (KCNH2)): 89%
12 | CN(C)C(=O)c1ccc(-c2ccc3c(c2)CCN(CCN2CCCC2)C3=O)c(F)c1 | 0.0031 µM | – | IC50 [3]: 32.5 µM
13 | O=C1c2ccc(-c3ccc(F)c(F)c3)cc2CCN1CCN1CCCC1 | 0.0077 µM | 0.082 µM | –
14 | N#Cc1ccc(-c2ccc3c(c2)CCN(CCCN2CCCC2)C3=O)cc1 | 0.0069 µM | 0.27 µM | –
15 | C[C@@H]1CCCN1CCN1CCc2ccc(-c3ccc(C#N)cc3)cc2C1=O | 0.0024 µM | – | inhibition at 10 µM (hERG (KCNH2)): 98%
16 | C[C@H]1CCCN1C(=O)c1ccc(-c2ccc3c(c2)CCN(CCN2CCCC2)C3=O)cc1 | 0.0017 µM | – | IC50 [3]: 12 µM; Ki (Histamine H1 receptor): 7.01 µM; Ki (Histamine H2 receptor): > 10 µM; Ki [4]: 9.04 µM; Ki [5]: > 10 µM; Ki [6]: > 10 µM; Ki (D(2) dopamine receptor): > 10 µM; Ki [7]: > 3 µM; Ki [8]: 0.39 µM; Ki [9]: > 10 µM
17 | CNC(=O)c1ccc(-c2ccc3c(c2)CCN(CCN2CCCC2)C3=O)c(F)c1 | 0.0017 µM | – | –
18 | O=C(NC1CCC1)c1ccc(-c2ccc3c(c2)CCN(CCN2CCCC2)C3=O)cc1 | 0.0021 µM | – | IC50 [3]: 2.5 µM
19 | CNC(=O)c1ccc(-c2ccc3c(c2)CCN(CCN2CCC[C@H]2C)C3=O)cc1 | 0.001 µM | – | IC50 [3]: 17 µM
20 | C[C@@H]1CCCN1CCN1CCc2cc(-c3ccc(C(=O)N4CCCC4)cc3)ccc2C1=O | 0.0002 µM | – | Ki (Histamine H1 receptor): 8.75 µM; Ki (Histamine H2 receptor): > 10 µM; Ki [4]: 12.2 µM; Ki [5]: > 10 µM; Ki [6]: > 10 µM; Ki (D(2) dopamine receptor): > 10 µM; Ki [7]: > 3 µM; Ki [8]: 0.81 µM; Ki [9]: > 10 µM
21 | C[C@@H]1CCCN1C(=O)c1ccc(-c2ccc3c(c2)CCN(CCN2CCCC2)C3=O)cc1 | 0.0017 µM | – | IC50 [3]: 10.5 µM; Ki (Histamine H1 receptor): > 10 µM; Ki (Histamine H2 receptor): > 10 µM; Ki [4]: 9.72 µM; Ki [5]: > 10 µM; Ki [6]: > 10 µM; Ki (D(2) dopamine receptor): > 10 µM; Ki [7]: > 3 µM; Ki [8]: 0.32 µM; Ki [9]: > 10 µM
22 | O=C1c2ccc(-c3ccc(OC(F)(F)F)cc3)cc2CCN1CCN1CCCC1 | 0.0149 µM | 0.178 µM | –
23 | C[C@H]1CCCN1CCN1CCc2cc(-c3ccc(C#N)cc3)ccc2C1=O | – | 0.049 µM | –

Row | SMILES | Ki (Histamine H3 receptor [1]) | Ki (Histamine H3 receptor [2]) | further results
24 | NC(=O)c1ccc(-c2ccc3c(c2)CCN(CCN2CCCC2)C3=O)cc1 | 0.006 µM | – | inhibition at 10 µM (hERG (KCNH2)): 14%
25 | C[C@@H]1CCCN1CCN1CCc2cc(-c3ccc(F)cc3)ccc2C1=O | 0.0012 µM | 0.023 µM | IC50 [3]: 0.3 µM
26 | O=C1c2ccc(-c3ccc(F)cc3)cc2CCN1CCN1CCCC1 | 0.011 µM | 0.086 µM | –
27 | O=C(c1ccc(-c2ccc3c(c2)CCN(CCN2CCCC2)C3=O)cc1Cl)N1CCCC1 | 0.0016 µM | – | IC50 [3]: 9.3 µM
28 | O=C1c2ccc(-c3ccccc3)cc2CCN1CCN1CCCC1 | 0.0114 µM | 0.145 µM | –
29 | CCNC(=O)c1ccc(-c2ccc3c(c2)CCN(CCN2CCCC2)C3=O)cc1 | 0.0012 µM | – | –
30 | N#Cc1ccc(-c2ccc3c(c2)CCN(CCCN2CCCCC2)C3=O)cc1 | 0.018 µM | 0.153 µM | –
31 | O=C(c1ccc(-c2ccc3c(c2)CCN(CCN2CCCC2)C3=O)cc1)C1CC1 | 0.006 µM | – | inhibition at 10 µM (hERG (KCNH2)): 65%
32 | C[C@@H]1CCCN1CCN1CCc2cc(Oc3ccc(C#N)cc3)ccc2C1=O | 0.0006 µM | – | inhibition at 10 µM (hERG (KCNH2)): 95%
33 | O=C1c2ccc(-n3cnc4ccccc43)cc2CCN1CCN1CCCC1 | 0.0008 µM | 0.174 µM | –
34 | O=C1c2ccc(-c3ccc(F)cc3)cc2CCN1CCN1CCCCC1 | 0.0078 µM | – | –
35 | O=C1c2ccc(-c3cc(F)cc(F)c3)cc2CCN1CCN1CCCC1 | 0.009 µM | 0.146 µM | –
36 | O=C(c1ccc(-c2ccc3c(c2)CCN(CCN2CCCC2)C3=O)cc1)N1CCCC1 | 0.0024 µM | – | –
37 | O=C(c1ccc(-c2ccc3c(c2)CCN(CCN2CCCC2)C3=O)c(F)c1)N1CCCC1 | 0.0032 µM | – | IC50 [3]: 11.3 µM
38 | O=C1c2ccc(-c3ccncc3)cc2CCN1CCN1CCCC1 | 0.0078 µM | – | inhibition at 10 µM (hERG (KCNH2)): 93%
39 | O=C(NC1CCCC1)c1ccc(-c2ccc3c(c2)CCN(CCN2CCCC2)C3=O)cc1 | 0.0019 µM | – | IC50 [3]: 8.2 µM; Ki (Histamine H1 receptor): 9.62 µM; Ki (Histamine H2 receptor): > 10 µM; Ki [4]: 8.72 µM; Ki [5]: > 10 µM; Ki [6]: > 10 µM; Ki (D(2) dopamine receptor): > 10 µM; Ki [7]: > 3 µM; Ki [8]: 0.17 µM; Ki [9]: > 10 µM
40 | O=C1c2ccc(-c3ccc(C(F)(F)F)cc3)cc2CCN1CCN1CCCC1 | 0.0093 µM | 0.101 µM | –
41 | O=C(NC1CC1)c1ccc(-c2ccc3c(c2)CCN(CCN2CCCC2)C3=O)cc1 | 0.0027 µM | – | IC50 [3]: 11 µM
42 | C[C@@H]1CCCN1CCN1CCc2cc(-c3ccc(C#N)cc3)ccc2C1=O | – | 0.0058 µM | IC50 [3]: 0.14 µM
43 | O=C(c1ccc(-c2ccc3c(c2)CCN(CCN2CCCC2)C3=O)cc1F)N1CCCC1 | 0.0013 µM | – | IC50 [3]: 8.8 µM
44 | C[C@H]1CCCN1CCN1CCc2cc(-c3ccc(F)cc3)ccc2C1=O | 0.0127 µM | 0.11 µM | –
45 | O=C1c2ccc(-c3ccccc3F)cc2CCN1CCN1CCCC1 | 0.0141 µM | 0.174 µM | –
46 | N#Cc1ccc(-c2ccc3c(c2)CCN(CCN2CCCC2)C3=O)cc1 | 0.0039 µM | 0.025 µM | –

From ChEMBL document CHEMBL2029265, “2-(Pyrrolidin-1-yl)ethyl-3,4-dihydroisoquinolin-1(2H)-one derivatives as potent and selective histamine-3 receptor antagonists” (J Med Chem, 2012)
